{"source": "patent US20220280661A1", "about": "“GLUCOCORTICOID RECEPTOR RADIOLIGANDS AND METHODS FOR THEIR PREPARATION AND USE” (The Regents of the University of California, priority 2019, published 2022)", "target": "T1, GR (Mus musculus, UniProt P06537)", "T1 construct": "from tissue; host or cells: tissues of C57BL6/J mice (intact or adrenalectomized), in vivo", "T1 sequence (P06537 1-792)": "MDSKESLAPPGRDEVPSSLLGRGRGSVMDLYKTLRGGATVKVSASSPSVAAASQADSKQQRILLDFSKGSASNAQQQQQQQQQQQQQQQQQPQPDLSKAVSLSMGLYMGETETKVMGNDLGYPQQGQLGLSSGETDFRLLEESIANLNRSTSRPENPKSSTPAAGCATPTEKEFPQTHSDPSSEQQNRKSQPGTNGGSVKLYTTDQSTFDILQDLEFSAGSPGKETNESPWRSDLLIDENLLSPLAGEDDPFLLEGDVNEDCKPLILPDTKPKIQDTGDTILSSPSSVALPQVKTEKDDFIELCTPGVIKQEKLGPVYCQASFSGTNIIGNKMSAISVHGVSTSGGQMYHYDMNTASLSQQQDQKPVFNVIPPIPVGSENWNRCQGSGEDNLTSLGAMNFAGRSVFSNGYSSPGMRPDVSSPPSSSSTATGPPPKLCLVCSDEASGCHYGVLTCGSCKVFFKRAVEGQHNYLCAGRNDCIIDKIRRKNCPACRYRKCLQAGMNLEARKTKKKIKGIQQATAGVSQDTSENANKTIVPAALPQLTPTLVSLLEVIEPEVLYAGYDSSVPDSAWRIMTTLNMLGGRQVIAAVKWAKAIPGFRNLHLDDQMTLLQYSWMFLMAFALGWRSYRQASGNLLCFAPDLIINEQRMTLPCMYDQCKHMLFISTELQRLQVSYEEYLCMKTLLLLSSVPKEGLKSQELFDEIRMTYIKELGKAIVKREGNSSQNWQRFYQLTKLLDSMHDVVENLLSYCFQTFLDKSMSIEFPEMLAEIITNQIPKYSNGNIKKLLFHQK", "test": "Radiotracer biodistribution in intact or adrenalectomized mice", "assay_type": "in vivo", "conditions": "20 min post injection", "description": "All animal experiments were conducted under the approval from Institutional Animal Care and Use Committee (IACUC) at UCSF. Male nu nu or C57BL6/J mice (4-6 weeks) purchased from Charles River. All the mice were well-housed in the USCF with free access to food and water. […] The mice were treated once daily for three days. At day 3, the mice received the radiotracer after the final gavage. Adrenalectomized mice were purchased from Charles River, and provided drinking water supplemented with NaCl (aq) per instructions.\nFor a broader survey of radiotracer biodistribution post mortem, mice were euthanized after radiotracer injection with CO2(g) asphyxiation and dissected at dedicated time points post injection. The blood and tissues were removed, washed, dried and weighed. The activity of each tissue was measured with a gamma counter. All data was decay corrected. PRISM software was used to express a percentage (% ID/g) of the injected dose per gram of tissue. […] Table 2 provides a tabular representation of the biodistribution data collected 30, 60, 90 minutes after injection of [18F]-YJH08 in C57B16/J mice. The data are represented as mean standard deviation of the % ID/g.\nTo understand if corticosteroid depletion elevated radiotracer uptake in tissues, the biodistribution of [18F]-YJH08 was compared in intact and adrenalectomized (adx) mice. The radiotracer uptake was uniformly higher in the tissues of adx mice compared to intact mice (FIG. 4C and Table 4). Overall, the extent of GR specific binding in tissues observed with [18F]-YJH08 is remarkable considering the previously reported biodistribution data for radiotracers targeting GR, including non-steroidal agonists. See, Wuest, et al. Bioorganic & medicinal chemistry letters 2007, 17 (14), 4035-9.\nThe P value indicates the result of an unpaired, two-tailed Student's t test between the two arms (n=4/group).\nAnimal Studies. All animal experiments were performed under the approval of the Institutional Animal Care and Use Committee (IACUC) at UCSF. C57BL6/J mice (4-6 weeks) were purchased from Charles River. All the mice were housed in a dedicated vivarium with free access to food and water. […] Adrenalectomized mice were purchased from Charles River and provided drinking water supplemented with NaCl (aq) per instructions until the time of the tracer biodistribution study.\nBiodistribution Studies. Mice were euthanized after radiotracer (7.4-18.5 MBq in 100-150 μL) injection with CO2 (g) asphyxiation and dissected at dedicated time points post injection. The blood and tissues were collected, washed, dried, and weighed. The activity of each tissue was measured with a gamma counter. All data was decay corrected. PRISM software was used to express a percentage (% ID/g) of the injected dose per gram of tissue.\nThe data were collected in intact male C57B16/J mice at 20 min post injection.\nSignificant reductions in (±)-^11C-YJH08 tissue uptake were observed by treating mice with Dex-CD at 10 mg/kg via intraperitoneal injection 1 hour before the radiotracer injection (FIG. 7A). […] Specific binding in vivo was further studied by investigating relative tissue uptake in intact versus adrenalectomized mice (adrenalectomy depletes serum corticosteroids and elevates GR expression in tissues). […] Table 8 summarizes the biodistribution data collected 20 minutes after injection of (±)-^11C-YJH08 in intact or adrenalectomized (ADREX) mice. The P value indicates the result of an unpaired, two-tailed Student's t test between the two arms (n=4/group).", "key": {"[1]": {"conditions": "intact C57B16/J mice, listed as (±)-^18F-YJH08"}}, "data": [{"molecule": "CC1=CC(C)(C)Nc2ccc3c(c21)C(Cc1ccc(F)cc1)Oc1cccc(O[11CH3])c1-3", "note": "(racemic) [(±)-^11C-YJH08]", "values": [{"measurement": "radiotracer uptake, Blood", "setting": "adrenalectomized mice", "result": "2.79 ± 0.54", "unit": "% ID/g"}, {"measurement": "radiotracer uptake, Bone", "setting": "adrenalectomized mice", "result": "2.03 ± 0.4", "unit": "% ID/g"}, {"measurement": "radiotracer uptake, Brain", "setting": "adrenalectomized mice", "result": "2.28 ± 0.46", "unit": "% ID/g"}, {"measurement": "radiotracer uptake, Heart", "setting": "adrenalectomized mice", "result": "5.63 ± 0.94", "unit": "% ID/g"}, {"measurement": "radiotracer uptake, Kidney", "setting": "adrenalectomized mice", "result": "6.88 ± 1.52", "unit": "% ID/g"}, {"measurement": "radiotracer uptake, Liver", "setting": "adrenalectomized mice", "result": "15.21 ± 3.39", "unit": "% ID/g"}, {"measurement": "radiotracer uptake, Muscle", "setting": "adrenalectomized mice", "result": "2.32 ± 0.5", "unit": "% ID/g"}, {"measurement": "radiotracer uptake, Spleen", "setting": "adrenalectomized mice", "result": "2.88 ± 0.68", "unit": "% ID/g"}, {"measurement": "radiotracer uptake, Supraspinal BAT", "setting": "adrenalectomized mice", "result": "12.01 ± 3.54", "unit": "% ID/g"}, {"measurement": "radiotracer uptake, Adrenal Gland", "setting": "intact C57B16/J mice", "result": "13.88 ± 7.15", "unit": "% ID/g"}, {"measurement": "radiotracer uptake, Blood", "setting": "intact C57B16/J mice", "result": "2.25 ± 0.21", "unit": "% ID/g"}, {"measurement": "radiotracer uptake, Bone", "setting": "intact C57B16/J mice", "result": "1.19 ± 0.13", "unit": "% ID/g"}, {"measurement": "radiotracer uptake, Brain", "setting": "intact C57B16/J mice", "result": "1.81 ± 0.17", "unit": "% ID/g"}, {"measurement": "radiotracer uptake, Heart", "setting": "intact C57B16/J mice", "result": "4.47 ± 0.43", "unit": "% ID/g"}, {"measurement": "radiotracer uptake, Kidney", "setting": "intact C57B16/J mice", "result": "5.82 ± 0.28", "unit": "% ID/g"}, {"measurement": "radiotracer uptake, Liver", "setting": "intact C57B16/J mice", "result": "12.19 ± 1.22", "unit": "% ID/g"}, {"measurement": "radiotracer uptake, Muscle", "setting": "intact C57B16/J mice", "result": "1.53 ± 0.13", "unit": "% ID/g"}, {"measurement": "radiotracer uptake, Spleen", "setting": "intact C57B16/J mice", "result": "2.22 ± 0.33", "unit": "% ID/g"}, {"measurement": "radiotracer uptake, Supraspinal BAT (brown fat depot)", "setting": "intact C57B16/J mice", "result": "9.8 ± 2.83", "unit": "% ID/g"}]}, {"molecule": "COc1cccc2c1-c1ccc3c(c1C(Cc1ccc([18F])cc1)O2)C(C)=CC(C)(C)N3", "note": "(racemic) [[18F]-YJH08, [^18F]-5-(4-fluorobenzyl)-10-methoxy-2,2,4-trimethyl-2,5-dihydro-1H-chromeno[3,4-f]quinoline]", "values": [{"measurement": "radiotracer uptake, Blood", "setting": "adrenalectomized mice", "result": "2.67 ± 0.1", "unit": "% ID/g"}, {"measurement": "radiotracer uptake, Bone", "setting": "adrenalectomized mice", "result": "1.45 ± 0.2", "unit": "% ID/g"}, {"measurement": "radiotracer uptake, Brain", "setting": "adrenalectomized mice", "result": "2.42 ± 0.1", "unit": "% ID/g"}, {"measurement": "radiotracer uptake, Heart", "setting": "adrenalectomized mice", "result": "4.75 ± 1.0", "unit": "% ID/g"}, {"measurement": "radiotracer uptake, Kidney", "setting": "adrenalectomized mice", "result": "6.91 ± 0.3", "unit": "% ID/g"}, {"measurement": "radiotracer uptake, Large intestine", "setting": "adrenalectomized mice", "result": "1.34 ± 0.7", "unit": "% ID/g"}, {"measurement": "radiotracer uptake, Liver", "setting": "adrenalectomized mice", "result": "13.28 ± 1.43", "unit": "% ID/g"}, {"measurement": "radiotracer uptake, Lung", "setting": "adrenalectomized mice", "result": "4.35 ± 1.1", "unit": "% ID/g"}, {"measurement": "radiotracer uptake, Muscle", "setting": "adrenalectomized mice", "result": "2.03 ± 0.2", "unit": "% ID/g"}, {"measurement": "radiotracer uptake, Pancreas", "setting": "adrenalectomized mice", "result": "5.25 ± 0.4", "unit": "% ID/g"}, {"measurement": "radiotracer uptake, Small intestine", "setting": "adrenalectomized mice", "result": "27.83 ± 2.89", "unit": "% ID/g"}, {"measurement": "radiotracer uptake, Spleen", "setting": "adrenalectomized mice", "result": "3.25 ± 0.05", "unit": "% ID/g"}, {"measurement": "radiotracer uptake, Stomach", "setting": "adrenalectomized mice", "result": "3.23 ± 3.57", "unit": "% ID/g"}, {"measurement": "radiotracer uptake, Supraspinal BAT", "setting": "adrenalectomized mice", "result": "15.56 ± 3.8", "unit": "% ID/g"}, {"measurement": "radiotracer uptake, Adrenal Gland", "setting": "intact C57B16/J mice", "result": "10.82 ± 5.9", "unit": "% ID/g"}, {"measurement": "radiotracer uptake, Blood", "setting": "intact C57B16/J mice", "result": "2.01 ± 0.4", "unit": "% ID/g"}, {"measurement": "radiotracer uptake, Bone", "setting": "intact C57B16/J mice", "result": "1.39 ± 02", "unit": "% ID/g"}, {"measurement": "radiotracer uptake, Brain", "setting": "intact C57B16/J mice", "result": "1.96 ± 0.09", "unit": "% ID/g"}, {"measurement": "radiotracer uptake, Heart", "setting": "intact C57B16/J mice", "result": "3.92 ± 0.5", "unit": "% ID/g"}, {"measurement": "radiotracer uptake, Kidney", "setting": "intact C57B16/J mice", "result": "5.79 ± 1.0", "unit": "% ID/g"}, {"measurement": "radiotracer uptake, Liver", "setting": "intact C57B16/J mice", "result": "10.68 ± 1.1", "unit": "% ID/g"}, {"measurement": "radiotracer uptake, Lung", "setting": "intact C57B16/J mice", "result": "3.89 ± 0.7", "unit": "% ID/g"}, {"measurement": "radiotracer uptake, Muscle", "setting": "intact C57B16/J mice", "result": "1.53 ± 0.1", "unit": "% ID/g"}, {"measurement": "radiotracer uptake, Pancreas", "setting": "intact C57B16/J mice", "result": "4.40 ± 0.2", "unit": "% ID/g"}, {"measurement": "radiotracer uptake, Small intestine", "setting": "intact C57B16/J mice", "result": "21.22 ± 4.1", "unit": "% ID/g"}, {"measurement": "radiotracer uptake, Spleen", "setting": "intact C57B16/J mice", "result": "2.67 ± −0.5", "unit": "% ID/g"}, {"measurement": "radiotracer uptake, Stomach", "setting": "intact C57B16/J mice", "result": "3.38 ± 2.8", "unit": "% ID/g"}, {"measurement": "radiotracer uptake, Supraspinal BAT (brown fat depot)", "setting": "intact C57B16/J mice", "result": "9.01 ± 2.0", "unit": "% ID/g"}, {"measurement": "radiotracer uptake, Adrenal Gland", "setting": "[1]", "result": "12.19 ± 6.46", "unit": "% ID/g"}, {"measurement": "radiotracer uptake, Blood", "setting": "[1]", "result": "2.22 ± 0.14", "unit": "% ID/g"}, {"measurement": "radiotracer uptake, Bone", "setting": "[1]", "result": "1.3 ± 0.23", "unit": "% ID/g"}, {"measurement": "radiotracer uptake, Brain", "setting": "[1]", "result": "1.93 ± 0.07", "unit": "% ID/g"}, {"measurement": "radiotracer uptake, Heart", "setting": "[1]", "result": "4.15 ± 0.31", "unit": "% ID/g"}, {"measurement": "radiotracer uptake, Kidney", "setting": "[1]", "result": "5.79 ± 1.07", "unit": "% ID/g"}, {"measurement": "radiotracer uptake, Liver", "setting": "[1]", "result": "11.08 ± 0.92", "unit": "% ID/g"}, {"measurement": "radiotracer uptake, Muscle", "setting": "[1]", "result": "1.53 ± 0.12", "unit": "% ID/g"}, {"measurement": "radiotracer uptake, Spleen", "setting": "[1]", "result": "2.46 ± 0.53", "unit": "% ID/g"}, {"measurement": "radiotracer uptake, Supraspinal BAT (brown fat depot)", "setting": "[1]", "result": "9.01 ± 2.07", "unit": "% ID/g"}]}]}
